Read-outs that look alike come from different tables or passages of the source.

Usually melting point stands for the temperature, or range, at which the solid turns liquid.

In data set [1] the target is T1, α1B Human Adrenergic Receptor (Homo sapiens, UniProt P35368).
T1 construct: The entire coding region of α1B (1563 bp); expressed in transfected cells
T1 sequence (P35368 1-520): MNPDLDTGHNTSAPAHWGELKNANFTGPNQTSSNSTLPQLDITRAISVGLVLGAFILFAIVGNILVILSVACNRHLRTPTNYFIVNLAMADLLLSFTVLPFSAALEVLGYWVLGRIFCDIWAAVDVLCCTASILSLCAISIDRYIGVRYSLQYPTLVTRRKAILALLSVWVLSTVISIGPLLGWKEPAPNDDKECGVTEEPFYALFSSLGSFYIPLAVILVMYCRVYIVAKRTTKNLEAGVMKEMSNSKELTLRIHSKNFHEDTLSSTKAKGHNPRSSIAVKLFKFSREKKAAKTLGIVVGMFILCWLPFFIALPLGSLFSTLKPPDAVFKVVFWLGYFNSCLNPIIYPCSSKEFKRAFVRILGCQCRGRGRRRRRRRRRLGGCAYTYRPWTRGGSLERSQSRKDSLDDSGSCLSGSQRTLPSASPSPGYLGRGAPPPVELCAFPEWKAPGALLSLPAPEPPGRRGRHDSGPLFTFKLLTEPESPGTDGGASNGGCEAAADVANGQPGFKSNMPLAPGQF
Kind of data set: Radioligand binding, [3H]prazosin, cloned human α1B adrenergic receptor. On the procedure:
(§1) The protocols for these experiments are given below.
(§2) These cell lines were prepared by transfecting the cloned cDNA or cloned genomic DNA or constructs containing both genomic DNA and cDNA encoding the human α-adrenergic receptors as follows:
α1B Human Adrenergic Receptor:
The construct involved ligating the full-length containing EcoRI brainstem cDNA fragment from λ ZapII into the expression vector. Stable cell lines were selected as described above.
(§3) Radioligand Binding Assays:
(§4) Transfected cells from culture flasks were scraped into 5 ml of 5 mM Tris-HCl, 5 mM EDTA, pH 7.5, and lysed by sonication. The cell lysates were centrifuged at 1000 rpm for 5 min at 4° C., and the supernatant was centrifuged at 30,000× g for 20 min at 4° C. The pellet was suspended in 50 mM Tris-HCl, 1 mM MgCl2, and 0.1% ascorbic acid at pH 7.5. Binding of the α1 antagonist [^3H]prazosin (0.5 nM, specific activity 76.2 Ci/mmol) to membrane preparations of LM(tk−) cells was done in a final volume of 0.25 ml and incubated at 37° C. for 20 min. Nonspecific binding was determined in the presence of 10 μM phentolamine. The reaction was stopped by filtration through GF/B filters using a cell harvester.

In data set [2] the target is T2, α1C Human Adrenergic Receptor (Homo sapiens, UniProt P35348).
T2 construct: The entire coding region of α1C (1401 bp); expressed in transfected cells
T2 sequence (P35348 1-466): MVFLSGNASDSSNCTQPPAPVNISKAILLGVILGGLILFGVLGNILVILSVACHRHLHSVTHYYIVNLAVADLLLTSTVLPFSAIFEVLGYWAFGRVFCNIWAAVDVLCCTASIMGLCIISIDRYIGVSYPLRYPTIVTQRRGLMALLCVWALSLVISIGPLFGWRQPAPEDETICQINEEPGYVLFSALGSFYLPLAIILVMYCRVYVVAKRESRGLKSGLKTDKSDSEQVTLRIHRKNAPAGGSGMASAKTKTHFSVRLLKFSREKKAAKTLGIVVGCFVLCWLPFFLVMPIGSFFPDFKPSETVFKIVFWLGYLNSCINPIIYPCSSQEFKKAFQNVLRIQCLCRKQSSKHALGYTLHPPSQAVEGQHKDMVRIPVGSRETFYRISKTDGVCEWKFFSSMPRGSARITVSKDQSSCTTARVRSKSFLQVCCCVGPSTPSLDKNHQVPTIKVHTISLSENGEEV
Kind of data set: Radioligand binding, [3H]prazosin, cloned human α1C adrenergic receptor. As for the experimental part:
as §1, §2
α1C Human Adrenergic Receptor:
The construct involved ligating three partial overlapping fragments: a 5′, 0.6 kb HincII genomic clone, a central 1.8 EcoRI hippocampal cDNA clone, and a 3′ 0.6Kb PstI genomic clone. The hippocampal cDNA fragment overlaps with the 5′ and 3′ genomic clones so that the HincII and PstI sites at the 5′ and 3′ ends of the cDNA clone, respectively, were utilized for ligation. This full-length clone was cloned into the KpnI site of the expression vector, using the 5′ and 3′ KpnI sites of the fragment, derived from vector (i.e., pBluescript) and 3′-untranslated sequences, respectively. Stable cell lines were selected as described above.
as §3, §4

Data set [3] has as its target T3, α1A Human Adrenergic Receptor (Homo sapiens, UniProt P25100).
T3 construct: The entire coding region of α1A (1719 bp); expressed in transfected cells
T3 sequence (P25100 1-572): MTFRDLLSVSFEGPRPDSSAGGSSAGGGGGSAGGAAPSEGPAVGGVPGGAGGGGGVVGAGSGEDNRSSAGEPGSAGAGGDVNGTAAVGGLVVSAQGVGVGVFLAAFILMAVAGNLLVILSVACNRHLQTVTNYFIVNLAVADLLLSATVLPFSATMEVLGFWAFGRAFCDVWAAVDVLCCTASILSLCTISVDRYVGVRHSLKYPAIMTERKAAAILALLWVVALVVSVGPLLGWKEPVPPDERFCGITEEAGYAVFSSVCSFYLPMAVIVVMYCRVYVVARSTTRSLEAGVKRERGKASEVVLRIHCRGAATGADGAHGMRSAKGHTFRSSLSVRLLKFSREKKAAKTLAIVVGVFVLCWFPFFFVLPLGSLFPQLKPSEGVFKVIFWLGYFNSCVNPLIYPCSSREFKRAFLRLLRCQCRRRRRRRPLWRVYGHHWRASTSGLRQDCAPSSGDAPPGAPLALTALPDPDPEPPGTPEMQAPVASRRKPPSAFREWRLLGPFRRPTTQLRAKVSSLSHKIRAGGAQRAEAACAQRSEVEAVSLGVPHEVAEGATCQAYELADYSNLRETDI
Kind of data set: Radioligand binding, [3H]prazosin, cloned human α1A adrenergic receptor. To be noted: [3H]prazosin. On the procedure:
as §1, §2
α1A Human Adrenergic Receptor:
The cells were grown, in a controlled environment (37° C., 5% CO2), as monolayers in Dulbecco's modified Eagle's Medium (GIBCO, Grand Island, N.Y.) containing 25 mM glucose and supplemented with 10% bovine calf serum, 100 units/ml penicillin g, and 100 μg/ml streptomycin sulfate.
as §3, §4

Setting [4] is: cloned human α1B receptor, LM(tk−) cell membranes, read-out: pKi alpha-1 1b (converted).
Setting [5] is: cloned human α1C receptor, LM(tk−) cell membranes, read-out: pKi alpha-1 1c (converted).
[6] abbreviates: cloned human α1A receptor, LM(tk−) cell membranes, read-out: pKi alpha-1 1a (converted).
The mark [7] stands for this setting: cloned human receptor, LM(tk-) cell membranes, mean, read-out: PKi alpha-1 1b (converted).
Where [8] appears, read: cloned human receptor, LM(tk-) cell membranes, mean, read-out: PKi alpha-1 1c (converted).
[9] abbreviates: cloned human receptor, LM(tk-) cell membranes, mean, read-out: PKi alpha-1 1a (converted).

Regarding `CCC1=C(C(=O)NC)C(c2ccc([N+](=O)[O-])cc2)C(C(=O)NCCCN2CCC(c3ccccc3)(c3ccc(OC)cc3)CC2)=C(CC)N1` (stereo not shown) [Example 107], the melting point was 133 °C (dec.). For the same molecule, the Ki in data set [1] (setting [4]) was 1 µM. Moreover, the Ki in data set [2] (setting [5]) is 0.00589 µM. For the same molecule, in data set [3] (setting [6]), the Ki was 0.871 µM.

As to `CCOC(=O)C1(c2ccccc2)CCN(CCCNC(=O)C2=C(COCCN=[N+]=[N-])NC(CC)=C(C(=O)O)C2c2ccc([N+](=O)[O-])cc2)CC1` (stereo not shown) [Example 189], the melting point was in the range of 109 to 110 °C. Further, the Ki in data set [1] (setting [7]) was 1.41 µM. Besides, the Ki in data set [2] (setting [8]) was 0.0263 µM. In addition, the Ki in data set [3] (setting [9]) is 4.68 µM.

Take `CC1=C(C(N)=O)C(c2ccc([N+](=O)[O-])cc2)C(C(=O)NCCCN2CCC(c3ccccc3)(c3ccccc3)CC2)=C(COCCN=[N+]=[N-])N1` (stereo not shown) [Example 154, 2-((2-Azidoethyl)oxy)methyl-5-carboxamido-1,4-dihydro-6-methyl-4-(4-nitro)phenyl-3-(N-(3-(4,4-diphenylpiperidin-1-yl)propyl))carboxamidopyridine]: the melting point was 90 to 95 °C (dec.). Moreover, the Ki in data set [1] (setting [4]) was 0.0871 µM. In data set [2] (setting [5]), the Ki was 0.00182 µM. Further, the Ki in data set [3] (setting [6]) is 0.112 µM.

Turning to `CCC1=C(C(=O)O)C(c2ccc([N+](=O)[O-])cc2)C(C(=O)NCCCN2CCC(c3ccccc3)(c3ccccc3)CC2)=C(COC)N1` (stereo not shown) [Example 136, 6-Ethyl-1,4-dihydro-2-(methyloxy)methyl-4-(4-nitro)phenyl-3-(N-(3-(4,4-diphenylpiperidin-1-yl)propyl))carboxamidopyridine-5-carboxylic acid], the melting point is 120 to 125 °C (dec.). Further, the Ki in data set [1] (setting [4]) was 0.407 µM. Also, in data set [2] (setting [5]), the Ki is 0.00347 µM. Besides, the Ki in data set [3] (setting [6]) was 0.832 µM.

For `CC1=C(C(N)=O)C(c2ccc([N+](=O)[O-])cc2)C(C(=O)NCCCN2CCC(c3ccccc3)(c3ccccc3)CC2)=C(CCCCCN)N1` (stereo not shown) [Example 169, 2-(5-Aminopentyl)-5-carboxamido-1,4-dihydro-6-methyl-4-(4-nitrophenyl)-3-{N-[3-(4,4-diphenylpiperidin-1-yl)propyl]}carboxamidopyridine], the melting point lay within 75 to 78 °C. Also, in data set [1] (PKi alpha-1 1b, cloned human receptor, LM(tk-) cell membranes, mean), the Ki was 0.229 µM. The Ki in data set [2] (PKi alpha-1 1c, cloned human receptor, LM(tk-) cell membranes, mean) is 0.00724 µM. This molecule also had a Ki in data set [3] (PKi alpha-1 1a, cloned human receptor, LM(tk-) cell membranes, mean) of 0.513 µM.

The molecule `CNC(=O)C1=C(C)NC(C)=C(C(=O)NCCCN2CCC(C(=O)OC)(c3ccccc3)CC2)C1c1ccc2c(c1)OCCO2` (stereo not shown) [Example 164, 4-(3,4-Ethylenedioxyphenyl)-1,4-Dihydro-3-{N-[3-(4-methoxycarbonyl-4-phenylpiperidin-1-yl)propyl]}carboxamido-2,6-dimethyl-5-[(N-methyl)carboxamido]pyridine] displayed a melting point of 101 to 104 °C. Also, in data set [1] (setting [7]), the Ki is 1.78 µM. Besides, the Ki in data set [2] (setting [8]) was 0.0229 µM. For the same molecule, the Ki in data set [3] (setting [9]) was 2.95 µM.

`CCOC(=O)C1(c2ccccc2)CCN(CCCNC(=O)C2=C(COCCN=[N+]=[N-])NC(CC)=C(C(N)=O)C2c2ccc([N+](=O)[O-])cc2)CC1` (stereo not shown) [Example 190, 2-[(2-Azidoethoxy)methyl]-5-carboxamido-3-{N-[3-(4-ethoxycarbonyl-4-phenylpiperidin-1-yl)propyl]}carboxamido-1,4-dihydro-6-ethyl-4-(4-nitrophenyl)pyridine]: the melting point lay within 63 to 64 °C. In addition, in data set [1] (setting [7]), the Ki is 0.708 µM. The Ki in data set [2] (setting [8]) is 0.00537 µM. In addition, the Ki in data set [3] (setting [9]) was 1.35 µM.

Values taken from patent US6608086B2, “Dihydropyridines and new uses thereof” (Synaptic Pharmaceutical Corporation, priority 1993, dated 2003).
